This note sets out measurements from patent US20120291159A1, “Azoline Compounds for Combating Invertebrate Pests” (BASF SE, priority 2009, published 2012).

Structures can show the parent of a compound that is named as a salt. A value given as a limit tells only on which side of the number the result lay.

Common to all, as to type: in vivo
Data set [1] relates to Orchid Thrips (Dichromothrips corbetti). Put plainly: Orchid thrips floral-immersion test (B.5). To be noted: 500 ppm, adult thrips, after 4 days. The protocol:
B.5 Orchid Thrips (Dichromothrips corbetti)
Dichromothrips corbetti adults used for bioassay are obtained from a colony maintained continuously under laboratory conditions. […]
Thrips potency of each compound is evaluated by using a floral-immersion technique. Plastic petri dishes are used as test arenas. All petals of individual, intact orchid flowers are dipped into treatment solution and allowed to dry. Treated flowers are placed into individual petri dishes along with 10-15 adult thrips. The petri dishes are then covered with lids. All test arenas are held under continuous light and a temperature of about 28° C. for duration of the assay. After 4 days, the numbers of live thrips are counted on each flower, and along inner walls of each petri dish. The level of thrips mortality is extrapolated from pre-treatment thrips numbers.

Data set [2] relates to Mediterranean Fruitfly (Ceratitis capitata). Put plainly: Mediterranean fruitfly microtiter diet test (B.4). The conditions noted are these: 120 h, egg and larval mortality after 5 days, read-out: mortality in comparison with untreated controls. As for the experimental part: B.4 Mediterranean Fruitfly (Ceratitis capitata)
For evaluating control of Mediterranean fruitfly (Ceratitis capitata) the test unit consisted of microtiter plates containing an insect diet and 50-80 C. capitata eggs. The compounds were formulated using a solution containing 75% v/v water and 25% v/v DMSO. Different concentrations of formulated compounds were sprayed onto the insect diet at 5 μl, using a custom built micro atomizer, at two replications. After application, microtiter plates were incubated at about 28±1° C. and about 80±5% relative humidity for 5 days. Egg and larval mortality was then visually assessed.

Data set [3] deals with Vetch Aphid (Megoura viciae). Put plainly: Vetch aphid leaf disk microtiter test (B.9). The conditions noted are these: foliar, 120 h, adult aphids on broad bean leaf disks, 5 days, read-out: mortality in comparison with untreated controls. The protocol: B.9 Vetch Aphid (Megoura viciae)
For evaluating control of vetch aphid (Megoura viciae) through contact or systemic means the test unit consisted of 24-well-microtiter plates containing broad bean leaf disks.
The compounds were formulated using a solution containing 75% v/v water and 25% v/v DMSO. Different concentrations of formulated compounds were sprayed onto the leaf disks at 2.5 μl, using a custom built micro atomizer, at two replications.
After application, the leaf disks were air-dried and 5-8 adult aphids placed on the leaf disks inside the microtiter plate wells. The aphids were then allowed to suck on the treated leaf disks and incubated at about 23±1° C. and about 50±5% relative humidity for 5 days. Aphid mortality and fecundity was then visually assessed.

For data set [4], the system named is Boll Weevil (Anthonomus grandis). Put plainly: Boll weevil microtiter diet test (B.11). To be noted: 120 h, egg and larval mortality after 5 days, read-out: mortality in comparison with untreated controls. The protocol: B.11 Boll Weevil (Anthonomus grandis)
For evaluating control of boll weevil (Anthonomus grandis) the test unit consisted of 24-well-microtiter plates containing an insect diet and 20-30 A. grandis eggs.
The compounds were formulated using a solution containing 75% v/v water and 25% v/v DMSO. Different concentrations of formulated compounds were sprayed onto the insect diet at 20 μl, using a custom built micro atomizer, at two replications.
After application, microtiter plates were incubated at about 23±1° C. and about 50±5% relative humidity for 5 days. Egg and larval mortality was then visually assessed.

In data set [5] the test system is Silverleaf Whitefly (Bemisia argentifoli). Briefly: Silverleaf whitefly cotton plant spray test (B.6). To be noted: 300 ppm; whitefly adults on sprayed cotton, 3 days after treatment. From the text: B.6 Silverleaf Whitefly (Bemisia argentifoli)
(§1) The active compounds were formulated in cyclohexanone as a 10,000 ppm solution supplied in tubes. The tubes were inserted into an automated electrostatic sprayer equipped with an atomizing nozzle and they served as stock solutions for which lower dilutions were made in 50% acetone:50% water (v/v). A nonionic surfactant (Kinetic®) was included in the solution at a volume of 0.01% (v/v).
Cotton plants at the cotyledon stage (one plant per pot) were sprayed by an automated electrostatic plant sprayer equipped with an atomizing spray nozzle. The plants were dried in the sprayer fume hood and then removed from the sprayer. Each pot was placed into a plastic cup and about 10 to 12 whitefly adults (approximately 3-5 days old) were introduced. The insects were collected using an aspirator and a nontoxic Tygon® tubing connected to a barrier pipette tip. The tip, containing the collected insects, was then gently inserted into the soil containing the treated plant, allowing insects to crawl out of the tip to reach the foliage for feeding. Cups were covered with a reusable screened lid. […] Mortality was assessed 3 days after treatment, compared to untreated control plants.

In data set [6] the test system is Cowpea Aphid (Aphis craccivora). Put plainly: Cowpea aphid spray test on potted cowpea plants (B.2). To be noted: 100 ppm; sprayed cowpea plants; assessed after 24, 72 and 120 hours. The protocol: If not otherwise specified the test solutions were prepared as follow:
The active compound was dissolved at the desired concentration in a mixture of 1:1 (vol:vol) distilled water:acteon. The test solution was prepared the day it was used and in general at concentrations of […] (wt/vol).
B.2 Cowpea Aphid (Aphis craccivora)
Potted cowpea plants colonized with approximately 100-150 aphids of various stages were sprayed after the pest population has been recorded. Population reduction was assessed after 24, 72, and 120 hours.

For data set [7], the system named is Tobacco Budworm (Heliothis virescens). Put plainly: Tobacco budworm cotton plant spray test (B.10). The conditions noted are these: 2500 ppm; larvae on sprayed cotton, 4 days after treatment. The protocol: B.10 Tobacco Budworm (Heliothis virescens) I
as §1
Cotton plants were grown 2 plants to a pot and selected for treatment at the cotyledon stage. Test solutions were sprayed onto the foliage by an automated electrostatic plant sprayer equipped with an atomizing spray nozzle. The plants were dried in the sprayer fume hood and then removed from the sprayer. Each pot was placed into perforated plastic bags with a zip closure. About 10 to 11 budworm larvae were placed into the bag and the bags zipped closed. Test plants were maintained in a growth room at about 25° C. and about 20-40% relative humidity for 4 days, avoiding direct exposure to fluorescent light (24 hour photoperiod) to prevent trapping of heat inside the bags. Mortality and reduced feeding were assessed 4 days after treatment, compared to untreated control plants.

`O=C(NCC(F)(F)F)c1cc(C2=NOC(c3cc(Cl)cc(Cl)c3)(C(F)(F)F)C2)ccn1` (centres unmarked) [compound 2-3]: the “mortality in comparison with untreated controls” value (“mortality in comparison” for short) in data set [1] is “at least 75%”.

Consider `NCc1cccc(C2=NOC(c3cc(Cl)cc(Cl)c3)(C(F)(F)F)C2)c1` (centres unmarked) [compound 3-1, 3-[5-(3,5-dichloro-phenyl)-5-trifluoromethyl-4,5-dihydro-isoxazol-3-yl]-benzylamine hydrochloride], for which the mortality at 2500 ppm in data set [2], in data set [3] and in data set [4] was not below 75% each time.

For `CCC(=O)NCc1cccc(C2=NOC(c3cc(Cl)cc(Cl)c3)(C(F)(F)F)C2)c1` (centres unmarked) [compound 3-2, N-{3-[5-(3,5-dichloro-phenyl)-5-trifluoromethyl-4,5-dihydro-isoxazol-3-yl]-benzyl}-propionamide], the mortality at 2500 ppm in data set [2], in data set [3] and in data set [4] was not below 75% throughout.

Turning to `CC(=O)NCc1cccc(C2=NOC(c3cc(Cl)cc(Cl)c3)(C(F)(F)F)C2)c1` (centres unmarked) [compound 3-3, N-{3-[5-(3,5-dichloro-phenyl)-5-trifluoromethyl-4,5-dihydro-isoxazol-3-yl]-benzyl}-acetamide], the mortality at 2500 ppm in data set [2], in data set [3] and in data set [4] was not below 75% throughout.

Take `CSCC(=O)NCc1cccc(C2=NOC(c3cc(Cl)cc(Cl)c3)(C(F)(F)F)C2)c1` (centres unmarked) [compound 3-4, N-{3-[5-(3,5-dichloro-phenyl)-5-trifluoromethyl-4,5-dihydro-isoxazol-3-yl]-benzyl}-2-methylsulfanyl-acetamide]: the mortality at 2500 ppm in data set [2] was not below 75%.

Regarding `CCCC(=O)NCc1cccc(C2=NOC(c3cc(Cl)cc(Cl)c3)(C(F)(F)F)C2)c1` (centres unmarked) [compound 3-5, N-{3-[5-(3,5-dichloro-phenyl)-5-trifluoromethyl-4,5-dihydro-isoxazol-3-yl]-benzyl}-butyramide], the mortality at 2500 ppm in data set [2], in data set [3] and in data set [4] was not below 75% each time.

On to `CCCC(=O)OCc1cccc(C2=NOC(c3cc(Cl)cc(Cl)c3)(C(F)(F)F)C2)c1` (centres unmarked) [compound 3-9], for which, in data set [5], the “mortality in comparison” value is “at least 75%”.

`CN1CCC(Oc2cccc(C3=NOC(c4cc(Cl)cc(Cl)c4)(C(F)(F)F)C3)c2)C1=O` (centres unmarked) [compound 5-1]: the “mortality in comparison” value in data set [6] was “at least 75%”.

As for `[O-][S+](c1cccc(C2=NOC(c3cc(Cl)cc(Cl)c3)(C(F)(F)F)C2)c1)C(F)(F)F` (centres unmarked) [compound 6-2], in data set [7], the “mortality in comparison” value is listed as “at least 75%”.

What is called mortality is the percentage killed.
